In US20240368127A1, “HSD17B13 INHIBITORS AND USES THEREOF” (FL2022-001, Inc., priority 2021, published 2024):

target: T1, Recombinant human HSD17B13 enzyme (Homo sapiens, UniProt Q7Z5P4); test: HSD17b13 NAD(P)H-Glo biochemical assay; conditions: 50 μM estradiol, 1 mM NAD+, 37° C. for 3 hours; read-out: HSD17β13 IC50
T1 sequence (Q7Z5P4 20-300): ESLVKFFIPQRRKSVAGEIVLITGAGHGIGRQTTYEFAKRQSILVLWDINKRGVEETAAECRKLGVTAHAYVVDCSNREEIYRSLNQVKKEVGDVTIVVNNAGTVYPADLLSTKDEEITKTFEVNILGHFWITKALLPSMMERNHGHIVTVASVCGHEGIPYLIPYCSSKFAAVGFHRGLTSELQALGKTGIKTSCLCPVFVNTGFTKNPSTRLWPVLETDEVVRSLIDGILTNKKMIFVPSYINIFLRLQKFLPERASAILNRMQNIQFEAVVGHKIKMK
Procedure: Example B-1: HSD17b13 NAD (P) H-Glo Biochemical Assay
Recombinant human HSD17B13 enzyme. Substrate: estradiol (Sigma β-Estradiol E8875), 100 mM in DMSO. Cofactor: NAD+ Grade I free acid (Sigma 10127965001), 20 mM in H2O. Assay buffer final concentration: 20 mM Tris pH7.4 with 0.002% Tween-20 and 0.02% BSA. Assay performed in 384 well solid bottom plate (Corning 3570). Enzymatic activity detected by NAD (P) H-Glo™ Detection System (Promega G9062).
Inhibitor compounds were serially diluted in DMSO and then further diluted in assay buffer to a 10× concentration consisting of 1% DMSO.
HSD17b13 enzyme was diluted in 1× assay buffer to the desired enzyme concentration based on the specific activity of the enzyme lot. 20 μL of diluted enzyme was added to each well along with 2.5 μL of 10× inhibitor solution. Assay plate was incubated at RT for 20 minutes, and then 2.5 μL of a 10× substrate/cofactor mix was added to each well for a final concentration of 50 μM estradiol and 1 mM NAD+. Assay plate was incubated at 37° C. for 3 hours. NAD (P) H-Glo™ Detection System reagents were prepared according to manufacturer's specifications, and 25 μL was added to each well. After incubating for 1 hour at RT, luminescence was measured.

IC50	Structure (SMILES)
≤ 0.1 µM	Cn1nc(-c2cc(C(F)(F)F)c(F)c(O)c2F)c2cnc(N3CCN(S(C)(=O)=O)C[C@@H]3CC3CCCCC3)nc21 (single isomer, unassigned) [Compound 15.01]
≤ 0.1 µM	Cn1nc(-c2cc(C(F)(F)F)c(F)c(O)c2F)c2cnc(N3CCOC[C@H]3CC3CCCCC3)nc21 (single isomer, unassigned) [Compound 15.04]
≤ 0.1 µM	Cn1nc(-c2cc(C(F)(F)F)c(F)c(O)c2F)c2cnc(N3CC[C@H]3Cc3ccccc3)nc21 (single isomer, unassigned) [Compound 15.10]
≤ 0.1 µM	CS(=O)(=O)N1CCN(c2ccc(-n3nnc4cc(F)c(O)c(F)c43)cc2)[C@H](Cc2ccccc2)C1 [Compound 1, (R)-1-(4-(2-Benzyl-4-(methylsulfonyl)piperazin-1-yl)phenyl)-5,7-difluoro-1H-benzo[d][1,2,3]triazol-6-ol]
0.1 to 1 µM	CS(=O)(=O)N1CCN(c2ccc(-n3nnc4cc(F)c(O)c(F)c43)cc2)[C@@H](Cc2ccccc2)C1 [Compound 1.01, (S)-1-(4-(2-Benzyl-4-(methylsulfonyl)piperazin-1-yl)phenyl)-5,7-difluoro-1H-benzo[d][1,2,3]triazol-6-ol]
≤ 0.1 µM	CS(=O)(=O)N1CCN(c2ccc(-n3nnc4cc(F)c(O)c(F)c43)cc2)C[C@@H]1Cc1ccccc1 [Compound 1.02, (S)-1-(4-(3-Benzyl-4-(methylsulfonyl)piperazin-1-yl)phenyl)-5,7-difluoro-1H-benzo[d][1,2,3]triazol-6-ol]
≤ 0.1 µM	CS(=O)(=O)N1CCN(c2ccc(-n3nnc4cc(F)c(O)c(F)c43)cc2)C[C@H]1Cc1ccccc1 [Compound 1.03, (R)-1-(4-(3-Benzyl-4-(methylsulfonyl)piperazin-1-yl)phenyl)-5,7-difluoro-1H-benzo[d][1,2,3]triazol-6-ol]
0.1 to 1 µM	Oc1c(F)cc2nnn(-c3ccc(N4CCO[C@@H](Cc5ccccc5)C4)cc3)c2c1F [Compound 1.04, (S)-1-(4-(2-Benzylmorpholino)phenyl)-5,7-difluoro-1H-benzo[d][1,2,3]triazol-6-ol]
0.1 to 1 µM	Oc1c(F)cc2nnn(-c3ccc(N4CCOC[C@H]4Cc4ccccc4)cc3)c2c1F [Compound 1.05, (R)-1-(4-(3-Benzylmorpholino)phenyl)-5,7-difluoro-1H-benzo[d][1,2,3]triazol-6-ol]
≤ 0.1 µM	Oc1c(F)cc2nnn(-c3ccc(N4CC[C@@H](Cc5ccccc5)C4)cc3)c2c1F [Compound 1.06, (R)-1-(4-(3-Benzylpyrrolidin-1-yl)phenyl)-5,7-difluoro-1H-benzo[d][1,2,3]triazol-6-ol]
≤ 0.1 µM	Oc1c(F)cc2nnn(-c3ccc(N4CC[C@H](Cc5ccccc5)C4)cc3)c2c1F [Compound 1.07, (S)-1-(4-(3-Benzylpyrrolidin-1-yl)phenyl)-5,7-difluoro-1H-benzo[d][1,2,3]triazol-6-ol]
≤ 0.1 µM	Oc1c(F)cc2nnn(-c3ccc(N4CCC(Cc5ccccc5)CC4)cc3)c2c1F [Compound 1.08, 1-(4-(4-Benzylpiperidin-1-yl)phenyl)-5,7-difluoro-1H-benzo[d][1,2,3]triazol-6-ol]
≤ 0.1 µM	Oc1c(F)cc2nnn(-c3ccc(N4CCCC(Cc5ccccc5)CC4)cc3)c2c1F (centres unmarked) [Compound 1.09, 1-(4-(4-Benzylazepan-1-yl)phenyl)-5,7-difluoro-1H-benzo[d][1,2,3]triazol-6-ol]
≤ 0.1 µM	CC1(Cc2ccccc2)CCN(c2ccc(-n3nnc4cc(F)c(O)c(F)c43)cc2)CC1 [Compound 1.10, 1-(4-(4-Benzyl-4-methylpiperidin-1-yl)phenyl)-5,7-difluoro-1H-benzo[d][1,2,3]triazol-6-ol]
≤ 0.1 µM	Cc1nn(-c2cc(C(F)(F)F)c(F)c(O)c2F)c2cnc(N3CCN(S(C)(=O)=O)C[C@H]3Cc3ccccc3)nc12 [Compound 2, (R)-3-(5-(2-Benzyl-4-(methylsulfonyl)piperazin-1-yl)-3-methyl-1H-pyrazolo[4,3-d]pyrimidin-1-yl)-2,6-difluoro-5-(trifluoromethyl)phenol]
≤ 0.1 µM	Cc1nn(-c2cc(C(F)(F)F)c(F)c(O)c2F)c2cnc(N3CCOCC3Cc3ccccc3)cc12 (centres unmarked) [Compound 2.01, 3-(5-(3-Benzylmorpholino)-3-methyl-1H-pyrazolo[3,4-c]pyridin-1-yl)-2,6-difluoro-5-(trifluoromethyl)phenol]
≤ 0.1 µM	Cc1nn(-c2cc(C(F)(F)F)c(F)c(O)c2F)c2cnc(N3CCN(S(C)(=O)=O)C[C@H]3Cc3ccccc3)cc12 [Compound 2.02, (R)-3-(5-(2-Benzyl-4-(methylsulfonyl)piperazin-1-yl)-3-methyl-1H-pyrazolo[3,4-c]pyridin-1-yl)-2,6-difluoro-5-(trifluoromethyl)phenol]
0.1 to 1 µM	Cc1nn(-c2cc(C(F)(F)F)c(F)c(O)c2F)c2cnc(N3CCN(S(C)(=O)=O)C[C@@H]3Cc3ccccc3)cc12 [Compound 2.03, (S)-3-(5-(2-Benzyl-4-(methylsulfonyl)piperazin-1-yl)-3-methyl-1H-pyrazolo[3,4-c]pyridin-1-yl)-2,6-difluoro-5-(trifluoromethyl)phenol]
≤ 0.1 µM	Cc1nn(-c2cc(C(F)(F)F)c(F)c(O)c2F)c2cnc(N3CCOC(Cc4ccccc4)C3)cc12 (centres unmarked) [Compound 2.04, 3-(5-(2-Benzylmorpholino)-3-methyl-1H-pyrazolo[3,4-c]pyridin-1-yl)-2,6-difluoro-5-(trifluoromethyl)phenol]
0.1 to 1 µM	Cc1nn(-c2cc(C(F)(F)F)cc(O)c2F)c2cnc(N3CCOC(Cc4ccccc4)C3)cc12 (centres unmarked) [Compound 2.05, 3-(5-(2-Benzylmorpholino)-3-methyl-1H-pyrazolo[3,4-c]pyridin-1-yl)-2-fluoro-5-(trifluoromethyl)phenol]
≤ 0.1 µM	CS(=O)(=O)N1CCN(c2ccc3c(c2)c(Cl)nn3-c2cc(C(F)(F)F)c(F)c(O)c2F)[C@H](Cc2ccccc2)C1 [Compound 2.06, (R)-3-(5-(2-Benzyl-4-(methylsulfonyl)piperazin-1-yl)-3-chloro-1H-indazol-1-yl)-2,6-difluoro-5-(trifluoromethyl)phenol]
≤ 0.1 µM	Cc1nn(-c2cc(C(F)(F)F)c(F)c(O)c2F)c2cnc(N3CCN(S(C)(=O)=O)[C@H](Cc4ccccc4)C3)cc12 [Compound 2.07, (R)-3-(5-(3-Benzyl-4-(methylsulfonyl)piperazin-1-yl)-3-methyl-1H-pyrazolo[3,4-c]pyridin-1-yl)-2,6-difluoro-5-(trifluoromethyl)phenol]
≤ 0.1 µM	CC(=O)c1nn(-c2cc(C(F)(F)F)c(F)c(O)c2F)c2ccc(N3CCN(S(C)(=O)=O)C[C@H]3Cc3ccccc3)cc12 [Compound 2.08]
≤ 0.1 µM	CS(=O)(=O)N1CCN(c2ncc3c(cnn3-c3cc(C(F)(F)F)c(F)c(O)c3F)n2)[C@H](Cc2ccccc2)C1 [Compound 2.09, (R)-3-(5-(2-Benzyl-4-(methylsulfonyl)piperazin-1-yl)-1H-pyrazolo[4,3-d]pyrimidin-1-yl)-2,6-difluoro-5-(trifluoromethyl)phenol]
≤ 0.1 µM	Cc1nn(-c2cc(C(F)(F)F)c(F)c(O)c2F)c2cnc(N3CCN(S(C)(=O)=O)[C@@H](Cc4ccccc4)C3)cc12 [Compound 2.10, (S)-3-(5-(3-Benzyl-4-(methylsulfonyl)piperazin-1-yl)-3-methyl-1H-pyrazolo[3,4-c]pyridin-1-yl)-2,6-difluoro-5-(trifluoromethyl)phenol]
≤ 0.1 µM	Cc1nn(-c2cc(C(F)(F)F)c(Cl)c(O)c2F)c2cnc(N3CCN(S(C)(=O)=O)C[C@H]3Cc3ccccc3)cc12 [Compound 2.11, (R)-3-(5-(2-Benzyl-4-(methylsulfonyl)piperazin-1-yl)-3-methyl-1H-pyrazolo[3,4-c]pyridin-1-yl)-6-chloro-2-fluoro-5-(trifluoromethyl)phenol]
≤ 0.1 µM	CS(=O)(=O)N1CCN(c2ccc3c(c2)c(N)nn3-c2cc(C(F)(F)F)c(F)c(O)c2F)[C@H](Cc2ccccc2)C1 [Compound 2.12, (R)-3-(3-Amino-5-(2-benzyl-4-(methylsulfonyl)piperazin-1-yl)-1H-indazol-1-yl)-2,6-difluoro-5-(trifluoromethyl)phenol]
≤ 0.1 µM	Cc1nn(-c2cc(C(F)(F)F)c(F)c(O)c2F)c2ccc(N3CCN(S(C)(=O)=O)C[C@H]3Cc3ccccc3)cc12 [Compound 2.13, (R)-3-(5-(2-Benzyl-4-(methylsulfonyl)piperazin-1-yl)-3-methyl-1H-indazol-1-yl)-2,6-difluoro-5-(trifluoromethyl)phenol]
≤ 0.1 µM	CNc1nn(-c2cc(C(F)(F)F)c(F)c(O)c2F)c2ccc(N3CCN(S(C)(=O)=O)C[C@H]3Cc3ccccc3)cc12 [Compound 2.14, (R)-3-(5-(2-Benzyl-4-(methylsulfonyl)piperazin-1-yl)-3-(methylamino)-1H-indazol-1-yl)-2,6-difluoro-5-(trifluoromethyl)phenol]
